From patent US20260097049A1, “C[…] AND METHODS OF USE FOR TREATMENT AND PREVENTION OF CANCER” (BlackStone Therapeutics, LLC, priority 2022, published 2026)
Several values for one entry are separate records, joined by “and”; a condition that tells them apart may be missing. Equal values may be shown once. Read-outs that look alike come from different tables or passages of the source.

Assay: Pharmacokinetics in CD1 male mice (plasma, HPLC-MS)
Format: in vivo
Conditions: for MRT inf: read-out: MRTInf—obs; for Vd: read-out: Vss—obs
Experimental: Formulation and dosing information for pharmacokinetic data is provided in Table 5 (CD=beta-cyclodextrin). The solutions were sonicated, vortexed, and slightly heated resulting in a clear purple liquid.
Pharmacokinetic data was produced by administering CD1 male mice with CCL-104 (H4CBD) or CCL-106 (H4CBDV). Each compound was formulated and administered as shown in Example 3. Plasma was sampled from the IV administered mice at 5 min, 15 min, 30 min, 1 hr, 2 hr, 4 hr post dose. Plasma was sampled from the PO administered mice at 15 min, 30 min, 1 hr, 2 hr, 4 hr, 6 hr post dose. The desired serial concentrations of working solutions were achieved by diluting stock solution of analyte with 50% acetonitrile in water solution. 10 μL of working solutions (0.5, 1, 2, 5, 10, 50, 100, 500, 1000 ng/mL) were added to 10 μL of the blank male CD1 mice plasma to achieve calibration standards of 0.5-1000 ng/mL (0.5, 1, 2, 5, 10, 50, 100, 500, 1000 ng/mL) in a total volume of 20 μL. Six quality control samples at 1 ng/mL, 2 ng/mL, 5 ng/mL, 10 ng/mL, 50 ng/mL and 800 ng/mL for plasma were prepared independently of those used for the calibration curves. These QC samples were prepared on the day of analysis in the same way as calibration standards. 20 μL standards, 20 μL QC samples and 20 μL unknown samples (10 μL plasma with 10 μL blank solution) were added to 200 μL of methanol containing IS mixture for precipitating protein respectively. Then the samples were vortexed for 30 seconds, then centrifuged at 4° C., 4,000 rpm for 15 min. The supernatant was diluted with water at a ratio of 1:2. 15 μL of the diluted supernatant was injected into the LC/MS/MS system for quantitative analysis.

[1] = IV 10 mg/kg, individual mouse, 10 mg/kg
[2] = PO 10 mg/kg, individual mouse, 10 mg/kg
[3] = male, CD1, mouse, plasma, iv, 10 mg/kg, IV 10 mg/kg, Mean of 4 mice
[4] = male, CD1, mouse, plasma, iv, 10 mg/kg, IV 10 mg/kg, individual mouse
[5] = male, CD1, mouse, plasma, po, 10 mg/kg, PO 10 mg/kg, Mean of 4 mice
[6] = male, CD1, mouse, plasma, po, 10 mg/kg, PO 10 mg/kg, individual mouse

## CCCc1cc(O)c(C2CC(C)CCC2C(C)C)c(O)c1 (racemic) [CCL-106, hexahydrocannabidivarin]
IV 10 mg/kg, Mean of 4 mice
  AUClast/D (h*mg/mL): 184 h*ng/mL per mg/kg
  AUC—% Extrap—obs: 18.4%
  Cl_obs: 74.7 mL/min/kg
[1]
  AUCInf: 2519 ng·h/mL and 2031 ng·h/mL and 2513 ng·h/mL
  AUClast: 2047 ng·h/mL and 1630 ng·h/mL and 1952 ng·h/mL
  AUC—% Extrap—obs: 12.7% and 18.7% and 19.8% and 22.3%
  C0: 4701 ng/mL and 5792 ng/mL and 5062 ng/mL
  Cl_obs: 84.1 mL/min/kg and 66.2 mL/min/kg and 82.1 mL/min/kg and 66.3 mL/min/kg
  MRTInf—obs: 2.11 h and 2.16 h and 2.49 h
  T1/2: 2.14 h and 2.50 h and 2.99 h
  Vss—obs: 8.38 L/kg and 10.7 L/kg and 9.89 L/kg
PO 10 mg/kg, Mean of 4 mice
  AUClast/D (h*mg/mL): 31.6 h*ng/mL per mg/kg
  AUC—% Extrap—obs: 25.7%
[2]
  AUCInf: 404 ng·h/mL and 453 ng·h/mL and 479 ng·h/mL
  AUClast: 308 ng·h/mL and 414 ng·h/mL and 226 ng·h/mL
  AUC—% Extrap—obs: 18.1% and 23.7% and 8.47% and 52.7%
  Cmax: 233 ng/mL and 177 ng/mL and 352 ng/mL and 127 ng/mL
  F (%): 16.7% and 20.0% and 12.3%
  MRTInf—obs: 3.27 h and 4.01 h and 2.21 h and 10.3 h
  T1/2: 3.20 h and 3.31 h and 2.04 h and 8.02 h
[3]
  AUC(0-inf): 2260 ng·h/mL
  AUC(0-t): 1840 ng·h/mL
  half-life: 2.32 h
  MRT inf: 2.1 h
  Vd: 9.3 L/kg
male, CD1, mouse, plasma, iv, 10 mg/kg, IV 10 mg/kg, Mean of 4 mice, read-out: C0
  C0: 4820 ng/mL
[4]
  AUC(0-inf): 1980 ng·h/mL
  AUC(0-t): 1730 ng·h/mL
  half-life: 1.63 h
  MRT inf: 1.62 h
  Vd: 8.18 L/kg
male, CD1, mouse, plasma, iv, 10 mg/kg, IV 10 mg/kg, individual mouse, read-out: C0
  C0: 3720 ng/mL
[5]
  AUC(0-inf): 429 ng·h/mL
  AUC(0-t): 316 ng·h/mL
  Tmax: 0.25 h
  bioavailability: 16.5%
  half-life: 4.14 h
  MRT inf: 4.9 h
male, CD1, mouse, plasma, po, 10 mg/kg, PO 10 mg/kg, Mean of 4 mice, read-out: Cmax
  Cmax: 222 ng/mL
[6]
  AUC(0-inf): 383 ng·h/mL
  AUC(0-t): 314 ng·h/mL
  Tmax: 0.25 h
  bioavailability: 16.9%
